This is an account of results in US20120329770A1, “CEPHALOSPORIN DERIVATIVES USEFUL AS BETA-LACTAMASE INHIBITORS AND COMPOSITIONS AND METHODS OF USE THEREOF” (priority 2010, published 2012).

Assay [1] has as its target T1, class A β-lactamase KPC-2 (Klebsiella pneumoniae, UniProt Q9F663).
T1 construct: calculated for a mature protein with a 24 amino acid signal peptide removed; made in house; host or cells: Escherichia coli DH5α (pBR322-catI-blaKPC-2)
Briefly: Inhibition of β-lactamases, nitrocefin hydrolysis. The class given is biochemical. Particulars: nitrocefin 100 μM, 10 min pre-incubation. As to the method:
The KPC-2 β-lactamase was purified from Escherichia coli DH5α strain containing the plasmid, pBR322-catI-blaKPC-2, which was kindly provided by Prof. F. van den Akker (Case Western Reserve University). Expression and purification of the enzyme was similar to that reported by Ke et al. (Biochemistry 2007, 46, 5732-5740). A molecular weight of 28,472 Da for the purified KPC-2 was determined by ESI MS. This is in close agreement with that calculated for a mature protein with a 24 amino acid signal peptide removed.
(§1) Assay conditions for IC50 determinations involved enzyme concentrations ranging between 2 and 6 nM. The concentration used for the nitrocefin substrate was 100 μM. Assays with OXA-10 and OXA-45 were conducted at pH 7.0 with 100 mM sodium phosphate buffer containing 25 mM sodium bicarbonate. Assays with KPC-2 and GC1 were performed at pH 7.0 in 50 mM HEPES buffer and assays with IMP-1 and VIM-2 were performed in the same buffer with the addition of 500 mM NaCl and 1 μM ZnSO4. BSA was used with all enzymes (except OXA-10 and KPC-2) at concentrations of 0.5-1.0 μg/mL.
(§2) Inhibitors were pre-incubated for 10 minutes at room temperature with enzyme assay solutions prior to the addition of the nitrocefin. […] Enzymatic activity was determined using the initial rate of increase in absorbance at 482 nm

Assay [2] deals with T2, class C β-lactamase GC1 (Enterobacter cloacae, UniProt Q59401).
T2 construct: made in house; host or cells: Escherichia coli AS226-51 harbouring pCS100
Briefly: Inhibition of β-lactamases, nitrocefin hydrolysis. The format is biochemical. Particulars: nitrocefin 100 μM, 10 min pre-incubation. As to the method: GC1 β-lactamase was purified from Escherichia coli AS226-51 harbouring pCS100, which was a generous gift from Prof. M. Nukaga (Josai International University, Japan). The cell culture was harvested and subjected to a stringent periplasmic lysis protocol according to Crichlow et al. (Biochemistry 1999, 38, 10256-10261.). Purification proceeded similarly to Nukaga et al. (J. Biol. Chem. 2004, 279, 9344-9352.) with cation exchange chromatography (CM Sephadex C-50) equilibrated with 10 mM sodium phosphate buffer (pH 6), followed by elution with a stepwise gradient of increasing NaCl concentration. Fractions containing β-lactamase activity were then applied to a phenylboronate column (MoBiTec, Germany), equilibrated with 20 mM triethanolamine.HCl, pH 7.0, 0.5 M NaCl. The column was washed with the same buffer and then eluted with sterile 0.5 M borate buffer, pH 7.0, 0.5 M NaCl. Active fractions eluted from the phenylboronate column were analyzed for purity via SDS-PAGE, pooled, and concentrated before buffer exchange to 100 mM sodium phosphate, pH 7.0.
(§3) Assay conditions for IC50 determinations involved enzyme concentrations ranging between 2 and 6 nM. […]
as §2

In assay [3] the target is T3, VIM-2 metallo-β-lactamase (Pseudomonas aeruginosa, UniProt Q9K2N0).
T3 construct: made in house; host or cells: Escherichia coli BL21 (DE3) pLysS carrying pNOR2001
Briefly: Inhibition of β-lactamases, nitrocefin hydrolysis. The class given is biochemical. As to conditions: nitrocefin 100 μM, 10 min pre-incubation; read-out: IC50 VIM-2 (Class B). As for the experimental part: VIM-2 metallo-β-lactamase was expressed in Escherichia coli BL21 (DE3) pLysS carrying pNOR2001 (a generous gift from P. Nordmann, Université Paris XI, France) and purified as reported by Poirel et al. (Antimicrob. Agents Chemother. 2000, 44, 891-897). The homogeneity and molecular weight of the mature VIM-2 (29.7 kDa) was determined by SDS-PAGE (Laemmli, U. K. Nature 1970, 227, 680-685). Enzyme concentration was determined from the absorbance at 280 nm (εEM=32,000 M^−1 cm^−1).
as §1, §2

For assay [4], the target named is T4, IMP-1 metallo-β-lactamase (Serratia marcescens, UniProt P52699).
T4 construct: made in house; host or cells: Escherichia coli BL21(DE3) carrying pCIP4
Briefly: Inhibition of β-lactamases, nitrocefin hydrolysis. The format is biochemical. As to conditions: nitrocefin 100 μM, 10 min pre-incubation; read-out: IC50 IMP-1 (Class B).
Source text: IMP-1 metallo-β-lactamase was expressed in Esherichia coli BL21(DE3) carrying pCIP4 and purified as reported by Laraki et al. (Antimicrob. Agents Chemother. 1999, 43, 902-906). The homogeneity of the protein was confirmed by SDS-PAGE according to the method of Laemmli (Nature 1970, 227, 680-685). The molecular weight of purified IMP-1, Mr=25,112±0.5 Da, as determined by ESI-MS, was in agreement with that deduced from its amino acid sequence (Laraki et al. Antimicrob. Agents Chemother. 1999, 43, 890-901).
as §1
Inhibitors were pre-incubated for 10 minutes at room temperature with enzyme assay solutions prior to the addition of the nitrocefin. These compounds were dissolved in DMSO and prepared at various concentrations such that the final concentration of DMSO was 1% during the pre-incubation. The reaction was initiated by the addition of the pre-incubated enzyme-cyclobutanone solution (90 μL) to a solution of nitrocefin in buffer (10 μL). Enzymatic activity was determined using the initial rate of increase in absorbance at 482 nm

The target in assay [5] is T5, class D β-lactamase OXA-10 (Pseudomonas aeruginosa, UniProt P14489).
T5 construct: indicating a post-translational deletion of a 20 amino acid signal peptide; made in house; host or cells: Escherichia coli BL21 (DE3), pET24a-blaOXA-10, purified from culture supernatant
Briefly: Inhibition of β-lactamases, nitrocefin hydrolysis. The format is biochemical.
Source text: OXA-10 β-lactamase was expressed and purified using a modified protocol of that reported by Golemi et al. (J. Am. Chem. Soc. 2000, 122, 6132-6133). The pET24a plasmid with the blaOXA-10 gene insert, a kind gift from Prof. S. Mobashery (Notre Dame University), was transformed into Escherichia coli BL21 (DE3) and induced with IPTG. Purification of the enzyme was achieved by the addition of ammonium sulfate to the induced culture supernatant. The protein precipitate collected (50-70% ammonium sulfate saturation) was dissolved and dialyzed against 10 mM Tris.SO4 buffer, pH 7.5, and further purified with a DE52 cellulose column (Whatman, UK) equilibrated with the same buffer. The material bound to the column was washed with 10 mM Tris.SO4 buffer, pH 7.5, followed by an elution with a K2SO4 gradient (0-100 mM). Protein fractions containing nitrocefin-hydrolyzing activity were concentrated and purity analyzed by SDS-PAGE. A molecular weight of 27,490 Da for OXA-10 was determined by ESI MS, indicating a post-translational deletion of a 20 amino acid signal peptide.
as §3, §2

For assay [6], the target named is class B β-lactamase NDM-1 (Klebsiella pneumoniae, UniProt C7C422). Description: Inhibition of β-lactamases, nitrocefin hydrolysis. The format is biochemical. Particulars: 15 μM nitrocefin.
Assay [7] deals with T6, IMP-1 (Serratia marcescens, UniProt P52699).
T6 construct: made in house; host or cells: Escherichia coli BL21(DE3) carrying pCIP4
Description: Inhibition of IMP-1-catalyzed hydrolysis of meropenem in vitro (310 nm). The format is biochemical.

The target in assay [8] is MBL CfiA (Aeromonas hydrophila, UniProt P26918). As to conditions: cited from earlier work.
MBL CfiA, sequence (P26918 28-254): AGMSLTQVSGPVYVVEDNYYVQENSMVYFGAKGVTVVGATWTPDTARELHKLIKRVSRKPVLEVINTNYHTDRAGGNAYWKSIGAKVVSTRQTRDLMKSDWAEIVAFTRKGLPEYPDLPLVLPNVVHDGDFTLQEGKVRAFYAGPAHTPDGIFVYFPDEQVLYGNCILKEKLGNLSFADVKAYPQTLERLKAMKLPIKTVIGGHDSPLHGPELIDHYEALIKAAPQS

T6 sequence (P52699 19-246 limits assumed): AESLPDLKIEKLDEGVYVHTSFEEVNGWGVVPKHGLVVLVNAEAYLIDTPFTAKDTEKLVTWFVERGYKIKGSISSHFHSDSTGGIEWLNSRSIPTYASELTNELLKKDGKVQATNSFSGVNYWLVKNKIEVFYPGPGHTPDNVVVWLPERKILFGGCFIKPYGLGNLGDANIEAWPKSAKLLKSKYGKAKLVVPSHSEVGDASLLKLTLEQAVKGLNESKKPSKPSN
class B β-lactamase NDM-1, sequence (C7C422 29-270, looked up): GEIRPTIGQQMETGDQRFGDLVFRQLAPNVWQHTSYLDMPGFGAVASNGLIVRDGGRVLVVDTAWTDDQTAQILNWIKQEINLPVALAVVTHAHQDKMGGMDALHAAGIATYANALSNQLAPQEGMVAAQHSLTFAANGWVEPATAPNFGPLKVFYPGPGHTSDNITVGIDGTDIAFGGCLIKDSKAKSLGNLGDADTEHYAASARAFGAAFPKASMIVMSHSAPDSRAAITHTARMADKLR
T4 sequence (P52699 19-246, looked up): as the sequence (P52699 19-246 limits assumed) above
T5 sequence (P14489 20-266): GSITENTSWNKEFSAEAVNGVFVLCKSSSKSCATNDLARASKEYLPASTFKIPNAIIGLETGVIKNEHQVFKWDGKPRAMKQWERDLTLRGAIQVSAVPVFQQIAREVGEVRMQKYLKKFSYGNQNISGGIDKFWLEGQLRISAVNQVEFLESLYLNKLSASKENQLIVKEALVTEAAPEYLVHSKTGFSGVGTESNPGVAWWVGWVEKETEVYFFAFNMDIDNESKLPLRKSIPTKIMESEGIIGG
T1 sequence (Q9F663 25-293, looked up): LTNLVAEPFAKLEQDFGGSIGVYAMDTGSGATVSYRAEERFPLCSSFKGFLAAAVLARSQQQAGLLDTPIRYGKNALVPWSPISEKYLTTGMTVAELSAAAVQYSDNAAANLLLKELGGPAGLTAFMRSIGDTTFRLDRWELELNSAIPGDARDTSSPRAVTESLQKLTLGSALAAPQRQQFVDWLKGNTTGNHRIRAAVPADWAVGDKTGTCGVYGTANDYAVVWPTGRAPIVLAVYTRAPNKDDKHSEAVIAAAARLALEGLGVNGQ
T2 sequence (Q59401 entry or part of it): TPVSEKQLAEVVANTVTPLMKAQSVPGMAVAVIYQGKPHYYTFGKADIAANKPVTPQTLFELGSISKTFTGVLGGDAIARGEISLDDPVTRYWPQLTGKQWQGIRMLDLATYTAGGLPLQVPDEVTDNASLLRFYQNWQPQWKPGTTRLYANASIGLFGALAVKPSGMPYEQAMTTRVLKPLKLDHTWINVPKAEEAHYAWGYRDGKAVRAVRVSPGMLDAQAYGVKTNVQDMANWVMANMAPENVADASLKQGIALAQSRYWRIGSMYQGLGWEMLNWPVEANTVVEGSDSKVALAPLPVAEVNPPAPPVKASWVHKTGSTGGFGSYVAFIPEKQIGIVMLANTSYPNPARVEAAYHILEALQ

The IC50 is the concentration that inhibits the measured activity by half. For the compound `O=C(Cc1ccc(F)cc1)N[C@@H]1C(=O)N2C(C(=O)O)=C(CSC(=O)c3ccccc3)CS[C@H]12` [drawing 28], the concentration for half-maximal inhibition (IC50) in assay [1] was determined as 104 µM; in assay [2], 11 µM; in assay [3] it was 4.2 µM; in assay [4], 8.2 µM; in assay [5], 6.3 µM; in assay [6] it was 40 µM.

For the compound `CO[C@@]1(NC(=O)C(C(=O)O)c2ccc(O)cc2)C(=O)N2C(C(=O)O)=C(CSc3nnnn3C)CO[C@@H]21` (stereo partly drawn) [moxalactam], the “performance as inhibitor” value in assay [7] was “poor performance”. For the same compound, the “protection of meropenem from IMP-1-catalyzed hydrolysis in vitro” value in assay [7] (IMP-1 12 nM, meropenem 200 μM, test substance 100 μM, 310 nm) is given as “poor protection”. The “incubation required for full inactivation of CfiA” value in assay [8] is 14 h.
